Reference: US20190350889A1, “Compositions And Methods Of Use Of Phorbol Esters In The Treatment Of Parkinson's Disease” (priority 2016, published 2019)

Tests used:
[1] = polar organic solvents and water; cited from earlier work
[2] = Dose ranging study: toxicity and side effects of different TPA doses administered clinically by i.v. infusion; format: in vivo, human
Procedure: TPA solution in a sterile syringe was injected into 200 ml of sterile saline and mixed well for i.v. infusion.
One mg TPA in solution was mixed well with 200 ml of sterile saline for intravenous infusion which was completed in 1 h at the rate of 16 μg/min. […] The above symptoms could be alleviated by giving the patients glucocorticoids. […] However, these side effects were short lived and reversible.
0.5 mg of TPA in solution was mixed well with 200 ml of saline for intravenous infusion which was completed in 1 h at the rate of 8 μg/min. […] Difficulty in breathing was not observed. The cardiac, hepatic, renal and pulmonary functions were all normal.
0.25 mg of TPA in solution was mixed well with 200 ml of saline for intravenous infusion which was completed in 1 h at the rate of 4 μg/min. […] The cardiac, hepatic, renal and pulmonary functions were all normal.

[3] = tested on: HIV; settings: MT-4 cells; Mekkawy et al. 2000; cited from earlier work
[4] = patients with bone marrow function depressed by chemotherapy; Han et al. 1998; cited from earlier work
[5] = 0.25 mg/patient x 4/week, i.v. infusion
[6] = 0.5 mg/patient x 2/week, i.v. infusion
[7] = 1 mg/patient/week, i.v. infusion
[8] = 1 mg/patient/week, i.v. infusion in 1 h at 16 μg/min

For `CC1=C[C@H]2[C@@]3(O)[C@H](C)[C@@H](O)[C@]4(O)[C@H]([C@@H]3C=C(CO)C[C@]2(O)C1=O)C4(C)C` [Phorbol], the solubility [1] is listed as “well soluble in most polar organic solvents and in water”.

With `CCCCCCCCCCCCCC(=O)O[C@@H]1[C@@H](C)[C@@]2(O)[C@@H](C=C(CO)C[C@]3(O)C(=O)C(C)=C[C@@H]23)[C@@H]2C(C)(C)[C@]12OC(C)=O` (stereo in doubt) [TPA, 12-O-tetradecanoylphorbol-13-acetate] the “Hb in the urine” value [2, 5] was “No Hb was detected in the urine”, the “cardiac, hepatic, renal and pulmonary functions” value (shortened to “cardiac, hepatic”) [2, 5] was “all normal” and the difficulty in breathing [2, 5] was “no patient suffered difficulty in breathing”. For the same compound, the “symptoms such as chills and fever” value ([2]; 0.25 mg/patient x 4/week, i.v. infusion in 1 h at 4 μg/min) was “also observed, but to a much lesser extent than with the higher dosages”, the “Hb in the urine” value [2, 6] was “Occasionally, Hb was detected in patients' urine” and the “cardiac, hepatic” value [2, 6] was “all normal”. For the same compound, the difficulty in breathing [2, 6] was “not observed”, the tolerability [2, 6] was “tolerated the lower dose more easily” and the “Hb in the urine” value [2, 7] was “Hb was detected in the urine”. For the same compound, the bleeding [2, 7] was “caused a minority of patients to bleed”, the “cardiac, hepatic” value [2, 7] was “all found to be normal” and the difficulty in breathing [2, 7] was “several patients suffered for a short period of time difficulty in breathing”. The duration of chills [2, 8] was “about 30 min”, the duration of fever [2, 8] was 3 to 5 h and the “fever: patients' temperature reached” value [2, 8] was 37.5-39.5 °C. For the same compound, the “onset of chills after TPA administration” value [2, 8] was “One hour after TPA administration”, the local irritation ([2]; TPA application (reason for giving it by i.v. infusion)) was “strong local irritation” and the HIV-cytopathic effects [3] was “inhibit the HIV-cytopathic effects on MT-4 cells”. The “circulating white blood cells and neutrophils” value [4] was “cause an increase in circulating white blood cells and neutrophils”.
